Entries after “also recorded” stand apart in the source; their conditions may differ.
Key:
[1] = tested on: murine peritoneal mast cells; assay: Mast cell degranulation by flow cytometry (surface Lamp1 and avidin binding) after compound 48/80; type: cell-based; settings: for degranulation of PCMC in response to MrgprB2: in vitro, dose-dependent manner; for mast cell degranulation (mast cell activation): 48 hours incubation, compound 48/80 20 ug/ml 20 minutes, FIG. 1B
Method: Primary mast cell cultures derived from murine peritoneal mast cells were incubated for 48 hours with kainic acid (0.1, 1.0, 10 and 100 uM), glutamate (6 mM) or vehicle control. Cultures were then exposed to the synthetic MrgprB2 ligand, compound 48/80, at 20 ug/ml for 20 minutes. The extent of mast cell degranulation was determined based on surface expression of Lamp1 protein and avidin binding using flow cytometry gated on CD117+ FcεR+ mast cells. Representative flow plots from unstimulated cells (control) and cells stimulated with compound 48/80 are shown (FIG. 1A). […] A similar set of experiments were performed using mast cells incubated with the selective GluK2 agonist, SYM2081 at 1600 nM concentration (FIGS. 1C and 1D). […] Each symbol represents data from a single well of mast cells.

[2] = tested on: murine peritoneal mast cells; assay: β-hexosaminidase release from mast cells; type: cell-based; settings: preincubated with SYM2081 at 100 nM and 1600 nM; FIG. 1F
irritant dermatitis = assay: Croton oil-induced irritant dermatitis, ear swelling; type: in vivo, C57BL/6 mice; settings: intradermal SYM2081 for 2 days; 0.5% croton oil on 1 ear; FIG. 2D
Method: (§1) Cohorts of 7-9-week-old female C57BL/6 mice were given 20 ul intradermal flank injections of 1600 nM SYM2081 or control PBS twice a day for 2 days. Evans Blue dye was introduced by intravenous injection to allow for quantification of edema followed by intradermal injection of control PBS or compound 48/80 (20 ul 10 ug/ml). The amount of Evans blue dye released into the skin which quantifies edema and is an indirect measure of mast cell degranulation was measured 20 minutes later (FIG. 2A). […] The percentage of degranulated mast cells was also quantified by direct microscopic visualization of skin samples stained with toluidine blue (FIG. 2B). Whole human skin explants were cultured in control PBS or 1600 nM SYM2081 for 48 hours. Sample were exposed to compound 48/80 (240 ug/ml) for 20 minutes followed by direct microscopic visualization of skin samples stained with toluidine blue (FIG. 2C). […] Finally, C57BL/6 mice were treated with intradermal injection of control PBS or SYM2081 for 2 days as above. Mice were then challenged by application of 0.5% croton oil, an irritant, on 1 ear and the degree of ear swelling which is reflective of the extent of irritant dermatitis was measured (FIG. 2D). […] Each symbol represents data from an individual animal.

[3] = tested on: mast cells in whole human skin explants; assay: Whole human skin explants, degranulated mast cells by toluidine blue after compound 48/80; type: cell-based; settings: 1600 nM for 48 hours; compound 48/80 240 ug/ml 20 minutes; FIG. 2C
Method: as §1

dermal mast cells = assay: Evans Blue dye edema after intradermal compound 48/80 in mice; type: in vivo, C57BL/6 mice; settings: compound 48/80 challenge, 20 minutes
Method: Cohorts of 7-9-week-old female C57BL/6 mice were given 20 ul intradermal flank injections of 1600 nM SYM2081 or control PBS twice a day for 2 days. Evans Blue dye was introduced by intravenous injection to allow for quantification of edema followed by intradermal injection of control PBS or compound 48/80 (20 ul 10 ug/ml). The amount of Evans blue dye released into the skin which quantifies edema and is an indirect measure of mast cell degranulation was measured 20 minutes later (FIG. 2A). […] The percentage of degranulated mast cells was also quantified by direct microscopic visualization of skin samples stained with toluidine blue (FIG. 2B). […] Mice were then challenged by application of 0.5% croton oil, an irritant, on 1 ear and the degree of ear swelling which is reflective of the extent of irritant dermatitis was measured (FIG. 2D). […]
Cohorts of 7-9-week-old female C57BL/6 mice were treated with 5.0% SYM2081 formulated into a light base or vehicle alone on the flank twice daily for 2 days. Evans Blue dye was introduced by intravenous injection to allow for quantification of edema followed by intradermal injection of control PBS or compound 48/80 (20 ul 10 ug/ml). The amount of Evans blue dye released into the skin which quantifies edema and is an indirect measure of mast cell degranulation was measured 20 minutes later (FIG. 3A). […]

contact hypersensitivity = assay: DNFB contact hypersensitivity, ear thickness; type: in vivo, mice; settings: topical SYM2081 on shaved abdomen twice daily for 2 days; 0.5% DNFB sensitization, 0.25% DNFB challenge; 7 days; FIG. 3B

Row | Compound | effective concentration (suppression of mast cells) ([1]; FIG. 1E) | IC50 ([1]; Mus musculus, Mast cell, read-out: IC50 of suppression of mast cells (degranulation)) [nM] | degranulation of PCMC in response to MrgprB2 [1] | release of β-hexosaminidase [2] | ear swelling (irritant dermatitis) (irritant dermatitis) | percentage of degranulated mast cells [3] | edema (Evans blue dye released into the skin), indirect measure of mast cell degranulation (dermal mast cells; 20 ul intradermal 1600 nM SYM2081 twice a day for 2 days, FIG. 2A) | edema (Evans blue dye released into the skin), indirect measure of mast cell degranulation (dermal mast cells; topical 5.0% SYM2081 in a light base on flank twice daily for 2 days, FIG. 3A) | increased ear thickness (inflammation) in response to DNFB (contact hypersensitivity) | mast cell degranulation (mast cell activation) ([1]; glutamate 6 mM) | mast cell degranulation (mast cell activation) ([1]; kainic acid 0.1, 1.0, 10 and 100 uM)
1 | C[C@H](C[C@H](N)C(=O)O)C(=O)O [SYM2081, (2S,4R)-4-methylglutamic acid] | at least 0.1 nM | 2.27 | suppressed | decreased | attenuated; also recorded: reduced ear swelling | reduced percentage of degranulated mast cells | effective to reduce mast cell degranulation; also recorded: suppressed; also recorded: significant reduction in edema | effective to reduce mast cell degranulation; also recorded: significant reduction in edema | reduced inflammation |  | 
2 | N[C@@H](CCC(=O)O)C(=O)O [glutamate] |  |  | suppressed |  |  |  |  |  |  | suppress mast cell activation | 
3 | C=C(C)[C@H]1CN[C@H](C(=O)O)[C@H]1CC(=O)O [kainic acid] |  |  | suppressed |  |  |  |  |  |  |  | suppress mast cell activation

Reference: patent US20240342136A1, “Glutamate receptor agonists for suppression of mast cell function” (University of Pittsburgh - Of the Commonwealth System of …, priority 2023, published 2024)
